# In patent US20150258043A1, “USE OF SPHINGOID LONG CHAIN BASES AND THEIR ANALOGS IN TREATING AND PREVENTING BACTERIAL INFECTIONS” (YEDA RESEARCH AND DEVELOPMENT CO. LTD., priority 2012, published 2015):
# Columns and labels:
# [1] = test system: P. aeruginosa strains 762, PA14 and ATCC 27853; assay: Pulmonary P. aeruginosa infection of CF and CerS2 null mice, inhalation treatment (bacteria in lung, sickness score); type: in vivo, mouse; details: CF mice; C16-ceramide and sphingosine at a 1:1 molar ratio, 1 h before infection, strain 762
# Experimental: (A,B) The number of bacteria in the lungs and the overall sickness score (C,D) of WT, CerS2 null and CF mice 3-4 h after intranasal infection with 1×10^8 CFU of P. aeruginosa strains 762 (A,C) and CF mice with strains PA14 and ATCC 27853. Mice were inhaled with 0.9% NaCl or acid ceramidase 1 h prior (b.i.) to infection, or with sphingosine or FTY720 1 h before (b.i.) or 1 h after (a.i.) infection. Sickness score 4, severely affected (unresponsive animal); score 3 affected, (heavy breathing, low body temperature, ruffled fur) score 2, moderately affected (ruffled fur, heavy breathing); score 1, slightly affected (ruffled fur); score 0, unaffected (healthy appearance). Data are means±s.d., n=4.
# Pulmonary infection of CF or CerS2 mice was achieved by intranasal application of P. aeruginosa strains 762, ATCC 27853 or PA14. Mice inhaled acid ceramidase, sphingosine, FTY720 or a combination of sphingosine and ceramide 1 hr before or after pulmonary infection. The number of bacteria in the lung was determined by culturing aliquots of lysed lungs on agar plates. Clinical symptoms of the infection were scored.
# Inhalation was performed with a PARI Boy SX nebulizer (PARI GmbH, Starnberg, Germany). This nebulizer generates a fine aerosol mist by pumping the fluid with an air jet. The mice inhaled the aerosol via a mask that is part of an oral inhalation device for children (LL-Nebulizer); the mask was clipped at the sides to cover only the mouse's nose and the surrounding part of the face. […]
# P. aeruginosa were grown for 14 to 14.5 h on fresh tryptic soy agar (TSA) plates (Becton Dickinson Biosciences, Germany). […] The bacterial OD was determined, and the bacteria were diluted in prewarmed H/S to a concentration of 1×10^8 CFU per 20 μL. […]
# Lungs were removed, homogenised and lysed for 10 min in 5 mg/ml saponin to release intracellular bacteria. […] Bacterial counts (CFU) were counted after 18 h.
# P. aeruginosa strain 762 = assay: Incubation of bacteria with sphingosine and increasing C16-ceramide, CFU count; type: cell-based, Pseudomonas aeruginosa; details: in the presence of 10 μM sphingosine
# Experimental: FIGS. 4A-D. The ceramide/sphingosine ratio regulates P. aeruginosa growth. (A) Representative image of two independent experiments (left hand panel) after addition of Sytox green (1 μM) for 30 min in the absence or presence of 50 μM sphingosine or 50 μM C16-ceramide (C16-Cer) in 1% DMSO. Fluorescent and thus permeabilised bacteria were quantified (right hand panel). (B-D) The inhibitory effect of sphingosine on the growth of P. aeruginosa strain 762 is decreased in vitro and in vivo by C16-ceramide. (B) Bacteria were incubated with 10 μM sphingosine, and increasing concentrations of C16-ceramide, and growth was determined by counting colony forming unit (CFU) after 24 hrs growth on LB agar plates. Number of bacteria in the lung (C) and sickness score (D) of CF mice or WT mice inhaled with either sphingosine or a combination of sphingosine and C16-ceramide 1 h before (b.i.) with 10^8 P. aeruginosa CFU strain 762. Data are means±s.d., n=3 in (A,B) and n=4 in (C,D).
# The in vitro effect of sphingosine in the presence or absence of ceramide was determined by incubation of early-logarithmic grown P. aeruginosa with sphingosine or ceramide or both in different ratios and measurement of surviving bacteria measuring the number of colony forming units 24 and 48 hrs after treatment.
# Bacteria were incubated in vitro with sphingosine and increasing amounts of C16-ceramide. […]
structure (smiles),measurement,setting,value
CCCCCCCCCCCCC/C=C/[C@@H](O)[C@H](CO)NC(=O)CCCCCCCCCCCCCCC [C16-ceramide],effect of co-inhaled C16-ceramide on protection by sphingosine,[1],abrogated the protective effect of sphingosine and restored susceptibility to P. aeruginosa infection
same,C16-ceramide concentration restoring bacterial growth,P. aeruginosa strain 762,≥ 10 µM
